Test results published in US12527519B2, “Neurostimulation devices and methods” (Cardionomix, Inc., priority 2016, dated 2026).

Test system: normal, non-HF ovine model
Experiment: Right ventricle vs left ventricle contractility after a change, pressure max(dP/dt) as surrogate, heartbeat-by-heartbeat correlation
Assay type: in vivo
Conditions: max(dP/dt) as surrogate for contractility, calcium at 5 mL
Source text: The correlation was a heartbeat-by-heartbeat analysis. Pressure measurements, taken by a Millar catheter comprising a MEMS pressure sensor, in units of max(dP/dt) was used as a surrogate for contractility.
The first change, a dobutamine injection, provided a very high contractility increase greater than 500%. The average correlation between right ventricle contractility and left ventricle contractility was very good at 0.91, where 1.00 is a perfect correlation. Accordingly, if a subject is given a dobutamine injection, measuring changes to right ventricle contractility can provide accurate information about changes to left ventricle contractility. The first change was repeated three times.
The second change, calcium injection at 5 mL, provided a contractility increase of about 20%. […] The average correlation between right ventricle contractility and left ventricle contractility using a Millar (MEMS) sensor on a catheter was very good at 0.91. The average correlation between right ventricle contractility and left ventricle contractility using a fluid-filled lumen of a Swan-Ganz catheter in communication with an external pressure sensor was also very good at 0.87. […]

calcium [Calcium Injection]
Contractility % Increase: ~20%
Contractility % Increase (listed as calcium injection): about 20%
